Reference: publication PMC12139422, “Structural basis for phosphatidylcholine synthesis by bacterial phospholipid N-methyltransferases” (The Journal of Biological Chemistry, 2025)

How the values were obtained:
AtPmtAΔN25 [1] = molecular target: T1, AtPmtAΔN25 (Agrobacterium fabrum, UniProt A9CKE9); assay: X-ray crystal structure ([…] Å); format: binding; conditions: cocrystallised with SAM at 10:1 ligand-to-protein, pH 8.0, 20 °C; density assigned to MTA as SAM cleavage product; SAM site
T1 construct: gene Atu0300; lacks residues 1-25 (N-terminal amphipathic helix); N-terminal His6-tag cut with HRV 3C protease; expressed in E. coli C43(DE3); full length 197 residues; four molecules in the asymmetric unit
T1 sequence (A9CKE9 26-197): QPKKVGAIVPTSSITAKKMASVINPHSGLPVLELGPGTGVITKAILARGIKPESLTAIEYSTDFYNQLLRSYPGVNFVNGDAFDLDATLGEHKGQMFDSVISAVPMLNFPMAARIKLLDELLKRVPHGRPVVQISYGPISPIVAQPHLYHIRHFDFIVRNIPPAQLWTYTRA

AtPmtAΔN25 [2] = molecular target: T1, AtPmtAΔN25; assay: X-ray crystal structure ([…] Å) and 1H-15N HSQC NMR titration; format: binding; conditions: cocrystallised at 10:1 ligand-to-protein, pH 8.0, 20 °C; NMR titration 0-10 equivalents, pH 7.0, 10 °C; SAM site (Gly-rich loop)

**Q.** `CSC[C@H]1O[C@@H](n2cnc3c(N)ncnc32)[C@H](O)[C@@H]1O` [5′-methylthioadenosine] was tested. Which “X-ray crystal structure (2.04 Å)” value (AtPmtAΔN25 [1]) did it give?
**A.** Therefore, we assigned the electron density to MTA

**Q.** For `Nc1ncnc2c1ncn2[C@@H]1O[C@H](CSCC[C@H](N)C(=O)O)[C@@H](O)[C@H]1O` [SAH], which “X-ray crystal structure (1.95 Å) and 1H-15N HSQC NMR titration” value (AtPmtAΔN25 [2]) is on record?
**A.** All four AtPmtAΔN25 molecules in the asymmetric unit contained SAH molecules with clear electron densities
